Assay results as given in US9340590B2 (priority 2011, dated 2016).

Legend:
Test in all cases: cell-based
[1] = biological target: hNav1.7 (Homo sapiens, UniProt Q15858); type: cell-based; details: IonWorks Quattro, use-dependent protocol, hNav1.7; read-out: IWQ Use Nav1.7
[2] = biological target: hNav1.5 (Homo sapiens, UniProt Q14524); details: IonWorks Quattro, use-dependent protocol, hNav1.5; read-out: IWQ Use Nav1.5
[3] = biological target: hNav1.3 (Homo sapiens, UniProt Q9NY46); details: IonWorks Quattro, use-dependent protocol, hNav1.3; read-out: IWQ Use Nav1.3

hNav1.7, sequence (Q15858 whole entry, looked up): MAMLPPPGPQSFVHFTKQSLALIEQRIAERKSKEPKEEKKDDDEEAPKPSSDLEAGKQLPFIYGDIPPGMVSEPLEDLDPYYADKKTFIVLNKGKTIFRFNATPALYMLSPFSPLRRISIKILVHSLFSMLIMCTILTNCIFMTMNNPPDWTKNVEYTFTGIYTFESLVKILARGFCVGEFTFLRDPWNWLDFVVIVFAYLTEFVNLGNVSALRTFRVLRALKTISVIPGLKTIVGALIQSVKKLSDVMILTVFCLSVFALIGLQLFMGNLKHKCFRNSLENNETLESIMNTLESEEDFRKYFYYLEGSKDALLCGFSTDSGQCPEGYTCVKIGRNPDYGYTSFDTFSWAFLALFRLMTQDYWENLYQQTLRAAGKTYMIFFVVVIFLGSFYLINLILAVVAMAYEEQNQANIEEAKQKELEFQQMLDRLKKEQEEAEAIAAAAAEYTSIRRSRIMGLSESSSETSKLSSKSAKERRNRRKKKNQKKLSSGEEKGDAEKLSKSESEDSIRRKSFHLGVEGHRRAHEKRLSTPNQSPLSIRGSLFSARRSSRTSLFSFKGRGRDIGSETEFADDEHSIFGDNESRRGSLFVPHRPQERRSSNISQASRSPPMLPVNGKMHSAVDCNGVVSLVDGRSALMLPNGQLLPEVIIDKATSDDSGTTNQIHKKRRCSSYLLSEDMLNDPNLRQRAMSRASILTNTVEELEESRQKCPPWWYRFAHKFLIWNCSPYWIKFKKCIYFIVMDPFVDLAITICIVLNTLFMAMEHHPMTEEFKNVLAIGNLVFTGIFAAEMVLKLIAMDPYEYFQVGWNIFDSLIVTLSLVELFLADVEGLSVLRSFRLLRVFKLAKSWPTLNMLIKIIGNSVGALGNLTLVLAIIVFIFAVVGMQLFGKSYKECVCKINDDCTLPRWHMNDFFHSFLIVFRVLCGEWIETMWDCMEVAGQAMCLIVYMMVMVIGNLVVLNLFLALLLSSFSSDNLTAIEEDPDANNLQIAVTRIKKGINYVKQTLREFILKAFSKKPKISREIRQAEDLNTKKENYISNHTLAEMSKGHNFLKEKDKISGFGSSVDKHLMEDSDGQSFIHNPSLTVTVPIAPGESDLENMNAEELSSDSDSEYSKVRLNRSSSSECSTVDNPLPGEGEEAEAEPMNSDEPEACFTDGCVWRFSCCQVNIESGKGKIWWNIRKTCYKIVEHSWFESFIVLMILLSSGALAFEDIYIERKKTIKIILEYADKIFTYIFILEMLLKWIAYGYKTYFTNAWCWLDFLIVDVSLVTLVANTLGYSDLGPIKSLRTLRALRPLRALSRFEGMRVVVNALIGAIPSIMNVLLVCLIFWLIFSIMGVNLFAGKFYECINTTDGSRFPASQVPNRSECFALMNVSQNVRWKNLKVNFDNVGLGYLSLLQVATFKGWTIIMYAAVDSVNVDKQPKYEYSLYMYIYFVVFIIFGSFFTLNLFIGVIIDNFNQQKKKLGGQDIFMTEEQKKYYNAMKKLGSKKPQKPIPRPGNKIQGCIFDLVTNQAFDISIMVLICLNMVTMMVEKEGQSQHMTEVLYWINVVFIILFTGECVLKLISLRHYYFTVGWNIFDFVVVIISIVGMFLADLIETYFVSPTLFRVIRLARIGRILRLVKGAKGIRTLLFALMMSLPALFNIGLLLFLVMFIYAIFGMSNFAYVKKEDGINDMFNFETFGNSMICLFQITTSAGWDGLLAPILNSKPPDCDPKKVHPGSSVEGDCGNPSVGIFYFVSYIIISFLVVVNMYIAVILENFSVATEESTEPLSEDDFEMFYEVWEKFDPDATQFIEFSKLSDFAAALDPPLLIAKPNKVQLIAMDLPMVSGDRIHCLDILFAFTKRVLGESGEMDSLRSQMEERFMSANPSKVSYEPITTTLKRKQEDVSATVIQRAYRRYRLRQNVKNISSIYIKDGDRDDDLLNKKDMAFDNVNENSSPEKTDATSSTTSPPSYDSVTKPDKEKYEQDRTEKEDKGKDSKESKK
hNav1.5, sequence (Q14524 whole entry, looked up): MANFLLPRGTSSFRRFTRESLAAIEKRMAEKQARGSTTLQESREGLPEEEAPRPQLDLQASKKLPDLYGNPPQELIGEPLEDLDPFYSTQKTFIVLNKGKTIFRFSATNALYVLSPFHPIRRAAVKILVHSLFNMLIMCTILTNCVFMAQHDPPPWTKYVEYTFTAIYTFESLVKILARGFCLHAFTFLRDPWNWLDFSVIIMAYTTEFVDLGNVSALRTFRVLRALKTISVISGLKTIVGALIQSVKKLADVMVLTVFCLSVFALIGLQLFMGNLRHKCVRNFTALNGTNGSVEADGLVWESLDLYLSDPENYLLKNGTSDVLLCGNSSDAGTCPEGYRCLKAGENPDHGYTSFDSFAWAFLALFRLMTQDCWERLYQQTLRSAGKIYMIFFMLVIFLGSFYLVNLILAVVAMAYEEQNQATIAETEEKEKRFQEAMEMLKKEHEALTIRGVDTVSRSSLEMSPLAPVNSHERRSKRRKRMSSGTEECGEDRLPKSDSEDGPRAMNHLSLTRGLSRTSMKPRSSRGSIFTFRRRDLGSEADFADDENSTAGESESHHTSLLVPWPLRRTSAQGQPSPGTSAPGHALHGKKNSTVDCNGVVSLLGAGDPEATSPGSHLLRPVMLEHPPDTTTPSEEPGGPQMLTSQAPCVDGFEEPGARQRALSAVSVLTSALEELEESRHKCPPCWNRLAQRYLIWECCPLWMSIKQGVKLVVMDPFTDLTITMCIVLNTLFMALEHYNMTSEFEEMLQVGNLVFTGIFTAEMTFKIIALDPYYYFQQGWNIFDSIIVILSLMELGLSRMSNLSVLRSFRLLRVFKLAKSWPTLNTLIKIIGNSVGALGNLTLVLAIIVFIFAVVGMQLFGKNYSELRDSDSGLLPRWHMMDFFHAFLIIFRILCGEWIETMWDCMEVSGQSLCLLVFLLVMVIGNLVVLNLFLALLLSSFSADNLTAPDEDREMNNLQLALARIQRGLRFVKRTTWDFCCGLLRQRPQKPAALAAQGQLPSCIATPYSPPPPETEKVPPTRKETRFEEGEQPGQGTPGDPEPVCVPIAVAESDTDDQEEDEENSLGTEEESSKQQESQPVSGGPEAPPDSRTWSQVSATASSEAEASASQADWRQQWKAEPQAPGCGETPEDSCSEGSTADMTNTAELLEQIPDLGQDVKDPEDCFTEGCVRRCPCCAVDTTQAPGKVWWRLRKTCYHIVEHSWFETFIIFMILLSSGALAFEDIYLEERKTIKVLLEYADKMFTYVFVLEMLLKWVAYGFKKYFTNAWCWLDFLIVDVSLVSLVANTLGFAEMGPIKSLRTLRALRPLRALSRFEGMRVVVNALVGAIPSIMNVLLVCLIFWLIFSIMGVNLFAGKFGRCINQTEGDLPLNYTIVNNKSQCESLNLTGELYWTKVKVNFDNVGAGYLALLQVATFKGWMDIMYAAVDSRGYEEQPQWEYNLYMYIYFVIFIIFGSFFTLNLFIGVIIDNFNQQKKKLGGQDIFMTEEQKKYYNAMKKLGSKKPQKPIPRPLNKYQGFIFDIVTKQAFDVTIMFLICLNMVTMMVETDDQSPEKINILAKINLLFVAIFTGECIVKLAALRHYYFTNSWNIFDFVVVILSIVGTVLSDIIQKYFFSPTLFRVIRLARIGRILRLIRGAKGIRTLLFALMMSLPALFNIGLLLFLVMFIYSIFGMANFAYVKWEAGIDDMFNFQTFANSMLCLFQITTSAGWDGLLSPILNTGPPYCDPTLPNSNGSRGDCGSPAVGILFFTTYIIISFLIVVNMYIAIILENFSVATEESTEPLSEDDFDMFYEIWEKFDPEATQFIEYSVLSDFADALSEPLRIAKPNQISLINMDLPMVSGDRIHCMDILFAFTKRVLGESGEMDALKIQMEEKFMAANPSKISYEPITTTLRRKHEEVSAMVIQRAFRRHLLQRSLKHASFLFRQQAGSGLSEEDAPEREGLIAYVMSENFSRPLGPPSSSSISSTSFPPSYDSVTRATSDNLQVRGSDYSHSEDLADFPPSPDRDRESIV

Row | Compound | IC50 [1] [nM] | IC50 [2] [nM] | IC50 [3] [nM]
1 | CC[C@H](C)[C@@H]1NC(=O)[C@@H]2CSSC[C@@H]3NC(=O)[C@H](C(C)C)NC(=O)[C@H](CC(C)C)NC(=O)[C@H](CC(N)=O)NC(=O)[C@@H]4CCCN4C(=O)[C@H](CCCNC(=N)N)NC(=O)[C@H](CSSC[C@H](NC(=O)[C@@H](N)CC(=O)O)C(=O)N[C@@H](CC(C)C)C(=O)NCC(=O)N[C@@H](C4CCCC4)C(=O)N[C@@H](CC(C)C)C(=O)N[C@@H](CCCNC(=N)N)C(=O)N[C@@H](CCCCN)C(=O)N2)NC(=O)[C@H](CSSC[C@@H](C(=O)N[C@@H](CCCCN)C(=O)N[C@@H](Cc2ccc(O)cc2)C(=O)N[C@H](C(=O)N[C@@H](Cc2ccccc2)C(N)=O)C(C)C)NC(=O)[C@H](Cc2c[nH]c4ccccc24)NC(=O)[C@H](CCCCN)NC(=O)[C@H](Cc2c[nH]cn2)NC(=O)[C@H]([C@@H](C)O)NC(=O)[C@H](CCCNC(=N)N)NC(=O)[C@H](CO)NC3=O)NC(=O)[C@H](CCCCN)NC(=O)[C@H](CC(=O)O)NC(=O)[C@H](CC(N)=O)NC(=O)[C@H](CC(=O)O)NC(=O)[C@@H]2CCCN2C1=O [compound 663] | 59 | > 5000 | 240
2 | CC[C@H](C)[C@@H]1NC(=O)[C@@H]2CSSC[C@@H]3NC(=O)[C@H](C(C)C)NC(=O)[C@H](CC(C)C)NC(=O)[C@H](CC(N)=O)NC(=O)[C@@H]4CCCN4C(=O)[C@H](CCCNC(=N)N)NC(=O)[C@H](CSSC[C@H](NC(=O)[C@@H](N)CC(=O)O)C(=O)N[C@@H](CC(C)C)C(=O)NCC(=O)N[C@@H](C4CCCCC4)C(=O)N[C@@H](CC(C)C)C(=O)N[C@@H](CCCNC(=N)N)C(=O)N[C@@H](CCCCN)C(=O)N2)NC(=O)[C@H](CSSC[C@@H](C(=O)N[C@@H](CCCCN)C(=O)N[C@@H](Cc2ccc(O)cc2)C(=O)N[C@H](C(=O)N[C@@H](Cc2ccccc2)C(N)=O)C(C)C)NC(=O)[C@H](Cc2c[nH]c4ccccc24)NC(=O)[C@H](CCCCN)NC(=O)[C@H](Cc2c[nH]cn2)NC(=O)[C@H]([C@@H](C)O)NC(=O)[C@H](CCCNC(=N)N)NC(=O)[C@H](CO)NC3=O)NC(=O)[C@H](CCCCN)NC(=O)[C@H](CC(=O)O)NC(=O)[C@H](CC(N)=O)NC(=O)[C@H](CC(=O)O)NC(=O)[C@@H]2CCCN2C1=O [compound 664] | 19 | > 5000 | 110
3 | CC[C@H](C)[C@@H]1NC(=O)[C@@H]2CSSC[C@@H]3NC(=O)[C@H](C(C)C)NC(=O)[C@H](CC(C)C)NC(=O)[C@H](CC(N)=O)NC(=O)[C@@H]4CCCN4C(=O)[C@H](CCCNC(=N)N)NC(=O)[C@H](CSSC[C@H](NC(=O)[C@@H](N)CC(=O)O)C(=O)N[C@@H](CC(C)C)C(=O)NCC(=O)N[C@@H](Cc4ccc(C(=O)c5ccccc5)cc4)C(=O)N[C@@H](CC(C)C)C(=O)N[C@@H](CCCNC(=N)N)C(=O)N[C@@H](CCCCN)C(=O)N2)NC(=O)[C@H](CSSC[C@@H](C(=O)N[C@@H](CCCCN)C(=O)N[C@@H](Cc2ccc(O)cc2)C(=O)N[C@H](C(=O)N[C@@H](Cc2ccccc2)C(N)=O)C(C)C)NC(=O)[C@H](Cc2c[nH]c4ccccc24)NC(=O)[C@H](CCCCN)NC(=O)[C@H](Cc2c[nH]cn2)NC(=O)[C@H]([C@@H](C)O)NC(=O)[C@H](CCCNC(=N)N)NC(=O)[C@H](CO)NC3=O)NC(=O)[C@H](CCCCN)NC(=O)[C@H](CC(=O)O)NC(=O)[C@H](CC(N)=O)NC(=O)[C@H](CC(=O)O)NC(=O)[C@@H]2CCCN2C1=O [compound 665] | 230 | > 5000 | 30
4 | CC[C@H](C)[C@@H]1NC(=O)[C@@H]2CSSC[C@@H]3NC(=O)[C@H](C(C)C)NC(=O)[C@H](CC(C)C)NC(=O)[C@H](CC(N)=O)NC(=O)[C@@H]4CCCN4C(=O)[C@H](CCCNC(=N)N)NC(=O)[C@H](CSSC[C@H](NC(=O)[C@@H](N)CC(=O)O)C(=O)N[C@@H](CC(C)C)C(=O)NCC(=O)N[C@@H](Cc4ccc(Cl)c(Cl)c4)C(=O)N[C@@H](CC(C)C)C(=O)N[C@@H](CCCNC(=N)N)C(=O)N[C@@H](CCCCN)C(=O)N2)NC(=O)[C@H](CSSC[C@@H](C(=O)N[C@@H](CCCCN)C(=O)N[C@@H](Cc2ccc(O)cc2)C(=O)N[C@H](C(=O)N[C@@H](Cc2ccccc2)C(N)=O)C(C)C)NC(=O)[C@H](Cc2c[nH]c4ccccc24)NC(=O)[C@H](CCCCN)NC(=O)[C@H](Cc2c[nH]cn2)NC(=O)[C@H]([C@@H](C)O)NC(=O)[C@H](CCCNC(=N)N)NC(=O)[C@H](CO)NC3=O)NC(=O)[C@H](CCCCN)NC(=O)[C@H](CC(=O)O)NC(=O)[C@H](CC(N)=O)NC(=O)[C@H](CC(=O)O)NC(=O)[C@@H]2CCCN2C1=O [compound 666] | 29 | 4500 | 16
5 | CC[C@H](C)[C@@H]1NC(=O)[C@@H]2CSSC[C@@H]3NC(=O)[C@H](C(C)C)NC(=O)[C@H](CC(C)C)NC(=O)[C@H](CC(N)=O)NC(=O)[C@@H]4CCCN4C(=O)[C@H](CCCNC(=N)N)NC(=O)[C@H](CSSC[C@H](NC(=O)[C@@H](N)CC(=O)O)C(=O)N[C@@H](CC(C)C)C(=O)NCC(=O)N[C@@H](Cc4ccc(I)cc4)C(=O)N[C@@H](CC(C)C)C(=O)N[C@@H](CCCNC(=N)N)C(=O)N[C@@H](CCCCN)C(=O)N2)NC(=O)[C@H](CSSC[C@@H](C(=O)N[C@@H](CCCCN)C(=O)N[C@@H](Cc2ccc(O)cc2)C(=O)N[C@H](C(=O)N[C@@H](Cc2ccccc2)C(N)=O)C(C)C)NC(=O)[C@H](Cc2c[nH]c4ccccc24)NC(=O)[C@H](CCCCN)NC(=O)[C@H](Cc2c[nH]cn2)NC(=O)[C@H]([C@@H](C)O)NC(=O)[C@H](CCCNC(=N)N)NC(=O)[C@H](CO)NC3=O)NC(=O)[C@H](CCCCN)NC(=O)[C@H](CC(=O)O)NC(=O)[C@H](CC(N)=O)NC(=O)[C@H](CC(=O)O)NC(=O)[C@@H]2CCCN2C1=O [compound 667] | 120 | > 5000 | 17
6 | CC[C@H](C)[C@@H]1NC(=O)[C@@H]2CSSC[C@@H]3NC(=O)[C@H](C(C)C)NC(=O)[C@H](CC(C)C)NC(=O)[C@H](CC(N)=O)NC(=O)[C@@H]4CCCN4C(=O)[C@H](CCCNC(=N)N)NC(=O)[C@H](CSSC[C@H](NC(=O)[C@@H](N)CC(=O)O)C(=O)N[C@@H](CC(C)C)C(=O)NCC(=O)N[C@@H](Cc4ccc(C(F)(F)F)cc4)C(=O)N[C@@H](CC(C)C)C(=O)N[C@@H](CCCNC(=N)N)C(=O)N[C@@H](CCCCN)C(=O)N2)NC(=O)[C@H](CSSC[C@@H](C(=O)N[C@@H](CCCCN)C(=O)N[C@@H](Cc2ccc(O)cc2)C(=O)N[C@H](C(=O)N[C@@H](Cc2ccccc2)C(N)=O)C(C)C)NC(=O)[C@H](Cc2c[nH]c4ccccc24)NC(=O)[C@H](CCCCN)NC(=O)[C@H](Cc2c[nH]cn2)NC(=O)[C@H]([C@@H](C)O)NC(=O)[C@H](CCCNC(=N)N)NC(=O)[C@H](CO)NC3=O)NC(=O)[C@H](CCCCN)NC(=O)[C@H](CC(=O)O)NC(=O)[C@H](CC(N)=O)NC(=O)[C@H](CC(=O)O)NC(=O)[C@@H]2CCCN2C1=O [compound 668] | 180 | 4400 | 11
7 | CC[C@H](C)[C@@H]1NC(=O)[C@@H]2CSSC[C@@H]3NC(=O)[C@H](C(C)C)NC(=O)[C@H](CC(C)C)NC(=O)[C@H](CC(N)=O)NC(=O)[C@@H]4CCCN4C(=O)[C@H](CCCNC(=N)N)NC(=O)[C@H](CSSC[C@H](NC(=O)[C@@H](N)CC(=O)O)C(=O)N[C@@H](CC(C)C)C(=O)NCC(=O)N[C@@H](Cc4ccc(F)cc4)C(=O)N[C@@H](CC(C)C)C(=O)N[C@@H](CCCNC(=N)N)C(=O)N[C@@H](CCCCN)C(=O)N2)NC(=O)[C@H](CSSC[C@@H](C(=O)N[C@@H](CCCCN)C(=O)N[C@@H](Cc2ccc(O)cc2)C(=O)N[C@H](C(=O)N[C@@H](Cc2ccccc2)C(N)=O)C(C)C)NC(=O)[C@H](Cc2c[nH]c4ccccc24)NC(=O)[C@H](CCCCN)NC(=O)[C@H](Cc2c[nH]cn2)NC(=O)[C@H]([C@@H](C)O)NC(=O)[C@H](CCCNC(=N)N)NC(=O)[C@H](CO)NC3=O)NC(=O)[C@H](CCCCN)NC(=O)[C@H](CC(=O)O)NC(=O)[C@H](CC(N)=O)NC(=O)[C@H](CC(=O)O)NC(=O)[C@@H]2CCCN2C1=O [compound 669] | 91 | > 5000 | 37
8 | CC[C@H](C)[C@@H]1NC(=O)[C@@H]2CSSC[C@@H]3NC(=O)[C@H](C(C)C)NC(=O)[C@H](CC(C)C)NC(=O)[C@H](CC(N)=O)NC(=O)[C@@H]4CCCN4C(=O)[C@H](CCCNC(=N)N)NC(=O)[C@H](CSSC[C@H](NC(=O)[C@@H](N)CC(=O)O)C(=O)N[C@@H](CC(C)C)C(=O)NCC(=O)N[C@@H](Cc4ccc(C)cc4)C(=O)N[C@@H](CC(C)C)C(=O)N[C@@H](CCCNC(=N)N)C(=O)N[C@@H](CCCCN)C(=O)N2)NC(=O)[C@H](CSSC[C@@H](C(=O)N[C@@H](CCCCN)C(=O)N[C@@H](Cc2ccc(O)cc2)C(=O)N[C@H](C(=O)N[C@@H](Cc2ccccc2)C(N)=O)C(C)C)NC(=O)[C@H](Cc2c[nH]c4ccccc24)NC(=O)[C@H](CCCCN)NC(=O)[C@H](Cc2c[nH]cn2)NC(=O)[C@H]([C@@H](C)O)NC(=O)[C@H](CCCNC(=N)N)NC(=O)[C@H](CO)NC3=O)NC(=O)[C@H](CCCCN)NC(=O)[C@H](CC(=O)O)NC(=O)[C@H](CC(N)=O)NC(=O)[C@H](CC(=O)O)NC(=O)[C@@H]2CCCN2C1=O [compound 670] | 190 | > 5000 | 55
9 | CC[C@H](C)[C@@H]1NC(=O)[C@@H]2CSSC[C@@H]3NC(=O)[C@H](C(C)C)NC(=O)[C@H](CC(C)C)NC(=O)[C@H](CC(N)=O)NC(=O)[C@@H]4CCCN4C(=O)[C@H](CCCNC(=N)N)NC(=O)[C@H](CSSC[C@H](NC(=O)[C@@H](N)CC(=O)O)C(=O)N[C@@H](CC(C)C)C(=O)NCC(=O)N[C@@H](Cc4ccc(C(C)(C)C)cc4)C(=O)N[C@@H](CC(C)C)C(=O)N[C@@H](CCCNC(=N)N)C(=O)N[C@@H](CCCCN)C(=O)N2)NC(=O)[C@H](CSSC[C@@H](C(=O)N[C@@H](CCCCN)C(=O)N[C@@H](Cc2ccc(O)cc2)C(=O)N[C@H](C(=O)N[C@@H](Cc2ccccc2)C(N)=O)C(C)C)NC(=O)[C@H](Cc2c[nH]c4ccccc24)NC(=O)[C@H](CCCCN)NC(=O)[C@H](Cc2c[nH]cn2)NC(=O)[C@H]([C@@H](C)O)NC(=O)[C@H](CCCNC(=N)N)NC(=O)[C@H](CO)NC3=O)NC(=O)[C@H](CCCCN)NC(=O)[C@H](CC(=O)O)NC(=O)[C@H](CC(N)=O)NC(=O)[C@H](CC(=O)O)NC(=O)[C@@H]2CCCN2C1=O [compound 671] | 140 | > 5000 | 50
